Source: patent US20100216779A1 (GLAXOSMITHKLINE LLC, priority 2007, published 2010)

How the values were obtained:
Format in all cases: cell-based
[1] = biological target: T1, IR (NIH-3T3 cells over expressing human IGF-1R or IR) (Homo sapiens, UniProt P06213); assay: IR cellular autophosphorylation (DELFIA); conditions: NIH-3T3 cells over expressing IR, insulin stimulated
T1 construct: expressed in transfected cells; host or cells: NIH-3T3 (mouse fibroblasts)
How it was run: (§1)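 Receptor-overexpressing NIH-3T3, 10% FBS, 37 °C; cpd 30 uM–1.5 nM × 2 h; stim IGF-1 30 ng/mL (IGF-1R) or insulin 3 ug/mL (IR), 15 min; lysate DELFIA, Eu anti-pTyr; % of stimulated signal.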

[2] = biological target: T2, human IGF-1R (NIH-3T3 cells over expressing human IGF-1R) (Homo sapiens, UniProt P08069); assay: IGF-1R cellular autophosphorylation (DELFIA); conditions: IGF-1 stimulated
T2 construct: expressed in transfected cells; host or cells: NIH-3T3 (mouse fibroblasts)
How it was run: as §1

COLO205 (colon) = assay: Inhibition of cell proliferation, CellTiter-Glo, COLO205; conditions: Homo sapiens, COLO 205, 72 h
How it was run: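 Exponentially growing COLO205 cells in medium with 10% FBS were plated below 2000 cells/well at 37 °C, 5% CO2. Untreated wells served as controls.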

[3] = system: NCI-H929 (multiple myeloma); assay: Inhibition of cell proliferation, CellTiter-Glo, NCI-H929; conditions: Homo sapiens, 72 h
How it was run: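 Cells were grown in medium with 10% FBS at 37° C, 5% CO2. Cell number was read as CellTiter-Glo luminescence (cellular ATP), with untreated wells as control.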

T2 sequence (P08069 31-1367): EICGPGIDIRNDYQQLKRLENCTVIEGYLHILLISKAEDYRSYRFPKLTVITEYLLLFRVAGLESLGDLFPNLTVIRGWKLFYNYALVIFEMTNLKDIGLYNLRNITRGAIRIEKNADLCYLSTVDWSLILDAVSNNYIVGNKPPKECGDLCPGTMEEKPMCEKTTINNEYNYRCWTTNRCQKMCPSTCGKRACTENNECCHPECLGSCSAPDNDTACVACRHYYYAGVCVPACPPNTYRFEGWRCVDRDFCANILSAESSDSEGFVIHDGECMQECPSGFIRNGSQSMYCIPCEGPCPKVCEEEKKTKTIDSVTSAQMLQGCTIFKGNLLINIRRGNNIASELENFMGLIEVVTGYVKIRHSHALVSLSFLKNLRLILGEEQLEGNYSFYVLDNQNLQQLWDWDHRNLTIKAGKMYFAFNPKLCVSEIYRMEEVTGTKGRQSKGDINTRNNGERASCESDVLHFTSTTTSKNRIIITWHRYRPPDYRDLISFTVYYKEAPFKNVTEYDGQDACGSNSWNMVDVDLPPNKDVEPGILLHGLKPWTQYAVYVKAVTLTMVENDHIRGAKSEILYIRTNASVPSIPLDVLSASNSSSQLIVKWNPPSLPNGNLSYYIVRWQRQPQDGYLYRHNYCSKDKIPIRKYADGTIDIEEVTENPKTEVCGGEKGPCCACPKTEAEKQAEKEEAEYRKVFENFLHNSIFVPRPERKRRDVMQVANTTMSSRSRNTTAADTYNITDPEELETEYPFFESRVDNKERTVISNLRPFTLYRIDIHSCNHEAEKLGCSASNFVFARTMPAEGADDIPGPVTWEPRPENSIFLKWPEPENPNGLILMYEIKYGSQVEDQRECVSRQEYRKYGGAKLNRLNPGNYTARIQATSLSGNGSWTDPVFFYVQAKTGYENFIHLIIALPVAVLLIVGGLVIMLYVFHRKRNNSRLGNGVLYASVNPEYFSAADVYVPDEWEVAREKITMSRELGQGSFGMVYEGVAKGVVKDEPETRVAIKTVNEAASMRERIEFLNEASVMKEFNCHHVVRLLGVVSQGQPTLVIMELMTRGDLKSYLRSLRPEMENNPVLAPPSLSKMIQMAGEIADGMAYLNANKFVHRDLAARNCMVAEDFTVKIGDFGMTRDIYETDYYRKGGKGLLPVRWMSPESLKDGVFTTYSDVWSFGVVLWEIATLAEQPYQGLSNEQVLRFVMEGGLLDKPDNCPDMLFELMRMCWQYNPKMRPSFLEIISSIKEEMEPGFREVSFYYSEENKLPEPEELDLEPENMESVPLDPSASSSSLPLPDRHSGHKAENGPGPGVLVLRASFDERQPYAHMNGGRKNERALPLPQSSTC
T1 sequence (P06213 28-1382): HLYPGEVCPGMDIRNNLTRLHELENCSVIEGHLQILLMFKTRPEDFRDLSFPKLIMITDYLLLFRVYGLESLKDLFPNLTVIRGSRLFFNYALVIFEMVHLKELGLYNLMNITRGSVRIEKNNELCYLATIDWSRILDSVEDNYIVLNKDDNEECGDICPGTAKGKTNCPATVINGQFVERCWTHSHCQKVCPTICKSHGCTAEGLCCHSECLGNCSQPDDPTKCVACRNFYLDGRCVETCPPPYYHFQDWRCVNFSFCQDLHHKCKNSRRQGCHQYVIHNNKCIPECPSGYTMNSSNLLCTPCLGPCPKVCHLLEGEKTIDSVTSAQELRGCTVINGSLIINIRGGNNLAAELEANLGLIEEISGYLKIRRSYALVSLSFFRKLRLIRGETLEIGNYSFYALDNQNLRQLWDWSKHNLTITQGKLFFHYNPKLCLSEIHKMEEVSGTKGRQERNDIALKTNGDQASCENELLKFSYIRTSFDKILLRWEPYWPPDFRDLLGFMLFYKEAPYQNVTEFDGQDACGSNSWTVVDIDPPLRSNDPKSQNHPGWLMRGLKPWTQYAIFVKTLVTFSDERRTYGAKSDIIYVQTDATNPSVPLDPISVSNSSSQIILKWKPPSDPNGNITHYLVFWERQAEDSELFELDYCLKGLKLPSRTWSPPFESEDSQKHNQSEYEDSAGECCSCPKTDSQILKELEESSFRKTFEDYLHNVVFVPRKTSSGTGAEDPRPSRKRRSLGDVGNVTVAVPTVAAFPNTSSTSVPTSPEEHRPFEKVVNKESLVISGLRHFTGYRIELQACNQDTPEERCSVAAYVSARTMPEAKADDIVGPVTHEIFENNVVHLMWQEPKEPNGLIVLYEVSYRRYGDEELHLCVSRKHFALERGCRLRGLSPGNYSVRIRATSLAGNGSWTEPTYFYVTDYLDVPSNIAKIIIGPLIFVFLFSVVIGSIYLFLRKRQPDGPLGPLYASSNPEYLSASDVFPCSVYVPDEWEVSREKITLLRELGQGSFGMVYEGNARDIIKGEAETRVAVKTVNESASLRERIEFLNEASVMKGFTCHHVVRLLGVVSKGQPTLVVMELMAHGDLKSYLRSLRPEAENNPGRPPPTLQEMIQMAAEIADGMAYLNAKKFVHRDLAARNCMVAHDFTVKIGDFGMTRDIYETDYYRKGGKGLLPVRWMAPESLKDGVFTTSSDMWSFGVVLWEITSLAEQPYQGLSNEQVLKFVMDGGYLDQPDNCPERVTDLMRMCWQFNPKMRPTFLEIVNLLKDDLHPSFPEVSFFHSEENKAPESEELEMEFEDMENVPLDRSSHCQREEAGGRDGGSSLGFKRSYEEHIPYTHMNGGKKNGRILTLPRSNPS

For `COCCN1CCN(c2ccc(Nc3nccc(-c4c(-c5ccc(OC)c(C(=O)Nc6c(F)cccc6F)c5)nc5ccccn45)n3)c(OC)c2)CC1` [Example 239, N-(2,6-difluorophenyl)-2-(methyloxy)-5-(3-{2-[(2-(methyloxy)-4-{4-[2-(methyloxy)ethyl]-1-piperazinyl}phenyl)amino]-4-pyrimidinyl}imidazo[1,2-a]pyridin-2-yl)benzamide], which IC50 [1] is on record?
The IC50 was < 100 nM.

What about the IC50 [2] of the same compound?
Its IC50 is < 100 nM.

What about the IC50 (COLO205 (colon)) of the same compound?
The IC50 was 250 to 1000 nM.

What about the IC50 [3] of the same compound?
Its IC50 is < 250 nM.

What does the source list for `COc1cc(N2CCC(C3CCN(CCS(C)(=O)=O)CC3)CC2)ccc1Nc1nccc(-c2c(-c3ccc(OC)c(C(=O)Nc4c(F)cccc4F)c3)nc3ccccn23)n1` [Example 98, N-(2,6-difluorophenyl)-2-(methyloxy)-5-(3-{2-[(2-(methyloxy)-4-{1′-[2-(methylsulfonyl)ethyl]-4,4′-bipiperidin-1-yl}phenyl)amino]-4-pyrimidinyl}imidazo[1,2-a]pyridin-2-yl)benzamide]?
IC50 [1]: < 100 nM; IC50 [2]: < 100 nM; IC50 (COLO205 (colon)): 250 to 1000 nM; IC50 [3]: 250 to 1000 nM

Which results are given for `COc1cc(N2CCC(N3CCN(CCF)CC3)CC2)ccc1Nc1nccc(-c2c(-c3cccc(C(=O)Nc4c(F)cccc4F)c3)nc3cc(F)ccn23)n1` [Example 194, N-(2,6-difluorophenyl)-3-[7-fluoro-3-(2-{[4-{4-[4-(2-fluoroethyl)-1-piperazinyl]-1-piperidinyl}-2-(methyloxy)phenyl]amino]-4-pyrimidinyl)imidazo[1,2-a]pyridin-2-yl]benzamide]?
IC50 [1]: 100 to 500 nM; IC50 [2]: < 100 nM; IC50 (COLO205 (colon)): 250 to 1000 nM; IC50 [3]: 250 to 1000 nM

What does the source list for `CCOc1ccc(-c2nc3ccccn3c2-c2ccnc(Nc3cc(C)c(N4CCC(CCS(C)(=O)=O)CC4)cc3OC)n2)cc1C(=O)Nc1c(F)cccc1F` [Example 229, N-(2,6-difluorophenyl)-2-(ethyloxy)-5-(3-{2-[(5-methyl-2-(methyloxy)-4-{4-[2-(methylsulfonyl)ethyl]-1-piperidinyl}phenyl)amino]-4-pyrimidinyl}imidazo[1,2-a]pyridin-2-yl)benzamide]?
IC50 [1]: < 100 nM; IC50 [2]: < 100 nM; IC50 (COLO205 (colon)): < 250 nM; IC50 [3]: < 250 nM

How did the IC50 [1] turn out when `CCOc1cc(N2CCN(C(C)C)CC2)ccc1Nc1nccc(-c2c(-c3cccc(C(=O)Nc4c(F)cccc4F)c3)nc3ccccn23)n1` [Example 171, N-(2,6-difluorophenyl)-3-{3-[2-({2-(ethyloxy)-4-[4-(1-methylethyl)-1-piperazinyl]phenyl}amino)-4-pyrimidinyl]imidazo[1,2-a]pyridin-2-yl}benzamide] was run?
The IC50 was < 100 nM.

And the IC50 [2]?
Its IC50 is < 100 nM.

What about the IC50 (COLO205 (colon)) of the same compound?
Its IC50 is 250 to 1000 nM.

And the IC50 [3]?
Its IC50 is 250 to 1000 nM.

With `COCCN(CCOC)C1CCN(c2ccc(Nc3nccc(-c4c(-c5cccc(C(=O)Nc6c(F)cccc6F)c5)nc5ccccn45)n3)c(OC)c2)CC1` [Example 49, 3-[3-(2-{[4-(4-{bis[2-(methyloxy)ethyl]amino}-1-piperidinyl)-2-(methyloxy)phenyl]amino}-4-pyrimidinyl)imidazo[1,2-a]pyridin-2-yl]-N-(2,6-difluorophenyl)benzamide] as the compound, how does the IC50 [1] read?
The IC50 was < 100 nM.

And the IC50 [2]?
Its IC50 is 100 to 500 nM.

What about the IC50 (COLO205 (colon)) of the same compound?
Its IC50 is 250 to 1000 nM.

What about the IC50 [3] of the same compound?
Its IC50 is 250 to 1000 nM.

What does the source list for `COc1cc(N2CCN(S(C)(=O)=O)CC2)ccc1Nc1nccc(-c2c(-c3cccc(C(=O)Nc4c(F)cccc4F)c3)nc3ccccn23)n1` [Example 234, N-(2,6-difluorophenyl)-3-{3-[2-({2-(methyloxy)-4-[4-(methylsulfonyl)-1-piperazinyl]phenyl}amino)-4-pyrimidinyl}imidazo[1,2-a]pyridin-2-yl]benzamide]?
IC50 [1]: < 100 nM; IC50 [2]: < 100 nM; IC50 (COLO205 (colon)): 250 to 1000 nM; IC50 [3]: < 250 nM

How did the IC50 [1] turn out when `CCN1CCN(C2CCN(c3ccc(Nc4nccc(-c5c(-c6cccc(C(=O)Nc7c(F)cccc7F)c6)nc6ccccn56)n4)c(OC)c3)CC2)CC1` [Example 64, N-(2,6-difluorophenyl)-3-[3-(2-{[4-[4-(4-ethyl-1-piperazinyl)-1-piperidinyl]-2-(methyloxy)phenyl]amino}-4-pyrimidinyl)imidazo[1,2-a]pyridin-2-yl]benzamide] was run?
Its IC50 is < 100 nM.

And the IC50 [2]?
The IC50 was 100 to 500 nM.

What about the IC50 (COLO205 (colon)) of the same compound?
Its IC50 is 250 to 1000 nM.

What about the IC50 [3] of the same compound?
Its IC50 is < 250 nM.

How did the IC50 [1] turn out when `COc1cc(C2CCN(C3CCN(CCS(C)(=O)=O)CC3)CC2)ccc1Nc1nccc(-c2c(-c3cccc(C(=O)Nc4c(F)cccc4F)c3)nc3ccccn23)n1` [Example 99, N-(2,6-difluorophenyl)-3-(3-{2-[(2-(methyloxy)-4-{1′-[2-(methylsulfonyl)ethyl]-1,4′-bipiperidin-4-yl}phenyl)amino]-4-pyrimidinyl}imidazo[1,2-a]pyridin-2-yl)benzamide] was run?
Its IC50 is < 100 nM.

What about the IC50 [2] of the same compound?
The IC50 was < 100 nM.

And the IC50 (COLO205 (colon))?
The IC50 was < 250 nM.

What about the IC50 [3] of the same compound?
The IC50 was < 250 nM.

For `COc1cc(N2CCC(N3CCCCC3)CC2)c(OC)cc1Nc1nccc(-c2c(-c3cccc(C(=O)Nc4c(F)cccc4F)c3)nc3ccccn23)n1` [Example 110, 3-[3-(2-{[4-(1,4′-bipiperidin-1′-yl)-2,5-bis(methyloxy)phenyl]amino}-4-pyrimidinyl)imidazo[1,2-a]pyridin-2-yl]-N-(2,6-difluorophenyl)benzamide], which IC50 [1] is on record?
Its IC50 is < 100 nM.

And the IC50 [2]?
The IC50 was < 100 nM.

And the IC50 (COLO205 (colon))?
The IC50 was 250 to 1000 nM.

What about the IC50 [3] of the same compound?
The IC50 was < 250 nM.

How did the IC50 [1] turn out when `CCCN1CCC(c2ccc(Nc3nccc(-c4c(-c5ccc(OC)c(C(=O)Nc6c(F)cccc6F)c5)nc5ccccn45)n3)c(OC)c2)CC1` [Example 137, N-(2,6-difluorophenyl)-2-(methyloxy)-5-[3-(2-{[2-(methyloxy)-4-(1-propyl-4-piperidinyl)phenyl]amino}-4-pyrimidinyl)imidazo[1,2-a]pyridin-2-yl]benzamide] was run?
The IC50 was < 100 nM.

What about the IC50 [2] of the same compound?
The IC50 was < 100 nM.

What about the IC50 (COLO205 (colon)) of the same compound?
The IC50 was 250 to 1000 nM.

What about the IC50 [3] of the same compound?
The IC50 was < 250 nM.

`COc1cc(N2CCN(CCS(C)(=O)=O)CC2)c(C)cc1Nc1nccc(-c2c(-c3ccc(OC)c(C(=O)Nc4c(F)cccc4F)c3)nc3ccccn23)n1` [Example 149, N-(2,6-difluorophenyl)-5-(3-{2-[(5-methyl-2-(methyloxy)-4-{4-[2-(methylsulfonyl)ethyl]-1-piperazinyl}phenyl)amino]-4-pyrimidinyl}imidazo[1,2-a]pyridin-2-yl)-2-(methyloxy)benzamide] was tested. Which IC50 [1] did it give?
The IC50 was < 100 nM.

What about the IC50 [2] of the same compound?
Its IC50 is < 100 nM.

What about the IC50 (COLO205 (colon)) of the same compound?
Its IC50 is < 250 nM.

What about the IC50 [3] of the same compound?
Its IC50 is < 250 nM.

For `COc1cc(N2CCC(N3CCN(CCF)C(=O)C3)CC2)ccc1Nc1nccc(-c2c(-c3cccc(C(=O)Nc4c(F)cccc4F)c3)nc3ccccn23)n1` [Example 121, N-(2,6-difluorophenyl)-3-[3-(2-{[4-{4-[4-(2-fluoroethyl)-3-oxo-1-piperazinyl]-1-piperidinyl}-2-(methyloxy)phenyl]amino]-4-pyrimidinyl)imidazo[1,2-a]pyridin-2-yl]benzamide], which IC50 [1] is on record?
The IC50 was < 100 nM.

And the IC50 [2]?
The IC50 was < 100 nM.

And the IC50 (COLO205 (colon))?
The IC50 was 250 to 1000 nM.

And the IC50 [3]?
Its IC50 is < 250 nM.

For `CCCc1cc(C2CCN(CCS(C)(=O)=O)CC2)ccc1Nc1nccc(-c2c(-c3ccc(OCC)c(C(=O)Nc4c(F)cccc4F)c3)nc3ccccn23)n1` [Example 168, N-(2,6-difluorophenyl)-2-(ethyloxy)-5-(3-{2-[(4-{1-[2-(methylsulfonyl)ethyl]-4-piperidinyl}-2-propylphenyl)amino]-4-pyrimidinyl}imidazo[1,2-a]pyridin-2-yl)benzamide], which IC50 [1] is on record?
The IC50 was < 100 nM.

What about the IC50 [2] of the same compound?
Its IC50 is < 100 nM.

And the IC50 (COLO205 (colon))?
Its IC50 is 250 to 1000 nM.

And the IC50 [3]?
Its IC50 is < 250 nM.
